Tested on: Plasmodium falciparum
Assay: GSK_TCMDC: Inhibition of Plasmodium falciparum 3D7 in whole erythrocytes, using parasite LDH activity as an index of growth.
Type: functional, organism-based
Conditions: Plasmodium falciparum, 3D7

SMILES | XC50 [nM]
CN(C)c1ccc(/C=C2\S/C(=N\c3ccccc3)N(c3ccccc3)C2=O)cc1[N+](=O)[O-] | 778
Cc1ccc2nc(C)cc(N/N=C/c3ccc([N+](=O)[O-])cc3)c2c1 | 793
Cc1[nH]c(C)c(-c2ccc(Oc3cccc(Cl)c3)cc2)c(=O)c1Cl | 20.8
CN1CCN(CC(O)CNC(=O)Nc2ccc(Br)cc2)CC1 (stereo not given) | 149
N=C(N)c1ccc(C=Cc2ccc(C(=N)N)cc2O)cc1 | 103
CCCCCCCN1CCC(NC(=O)Nc2ccnc3ccc(OC)cc23)C(CO)C1 (stereo not given) | 176
O=C(CCc1c[nH]cn1)Nc1cccc(-c2ccc(-c3nc4cc(F)ccc4[nH]3)s2)c1 | 557
O=C(NCCCN1CCCCC1)c1ccc(Nc2nccc(Nc3ccc(Oc4ccccc4)cc3)n2)cc1 | 626
COc1ccc(NC(=O)[C@H](CC(C)C)Nc2cc(C)nc(NCc3cccc(C)c3)n2)cc1 | 1020
COc1ccc2[nH]ccc(=NN=Cc3cccc(Cl)c3)c2c1 | 193
CCCCCCc1cc2cc(-c3nc(-c4ccc(OC)cc4)cs3)c(=O)oc2cc1O | 816
Cc1ccc(Cc2cccc3nc(N)nc(N)c23)cc1 | 1150
COc1ccc(CNC(=O)c2cnc3c(O)cccc3c2Nc2cccc(NC(=O)c3ccc(F)cc3)c2)cc1 | 996
CCc1cn2c3c(cc(C(=O)N[C@@H](Cc4cc(F)cc(F)c4)[C@H](O)CNC4CCOCC4)cc13)N(C)S(=O)(=O)CC2 | 33.6
COc1ccc(C(=O)C2CC2CN(C)CC(O)c2cc(C)c(OC)cc2C)cc1 (stereo not given) | 968
COc1ccc2nccc(NC(=O)C3(O)CCC(NCc4ncc5c(c4Cl)OCCO5)CC3)c2n1 (stereo not given) | 254
Cc1sc(NC(=O)c2ccc([N+](=O)[O-])cc2Cl)c(C(N)=O)c1C | 931
O=C(NC(=S)NCc1ccncc1)c1ccccc1 | 1690
CCOc1ccc(-c2nonc2NC(=O)c2ccc(Cl)cc2)cc1OCC | 988
COc1ccc2c(=O)c(-c3ccc(OC(F)(F)F)cc3)c(C)[nH]c2c1 | 233
COc1ccc(-c2cc3ncnc(N4CCN(CCN5CCCC5)CC4)c3s2)cc1 | 831
O=C(C1CCN(C(c2ccccc2)c2ccc(Cl)c(Cl)c2)CC1)N1CC=CC1 (stereo not given) | 725
CC[C@H](C)CNC(=O)c1cncc(-c2cccc(CNC3Cc4ccccc4C3)c2)c1 | 591
CN1CCN(CCCN(Cc2cccc(-c3ccc(CNCc4ccc5c(c4)OCO5)cc3)c2)C(=O)CCC2CCCC2)CC1 | 1000
CC(=O)c1sc2ccccc2c1O | 880

SMILES | XC50 [nM]
CC(C)(C)c1cc(C(=O)N2CCN(c3nccnc3C#N)CC2)n(Cc2ccccc2)n1 | 758
O=C1C(=Cc2c(O)ccc3ccccc23)SC(=NCc2ccccc2)N1Cc1ccccc1 | 155
Cc1ccc(NC(=O)c2ccc3ncccc3c2)cc1OC1CCN(Cc2ccsc2)CC1 | 930
CC(=NNc1nc2ccccc2s1)c1ccccn1 | 1120
C#CCOc1ccc2ccccc2c1CNCCCCCCNCc1c(OCC#C)ccc2ccccc12 | 780
Cn1cc(CCNc2ccnc(N3CCC(c4ncc[nH]4)CC3)n2)c2ccccc21 | 1200
CCCCCCN1CCCN(Cc2ccc(C(=O)Nc3ccc(C(C)C)cc3)cc2)CC1 | 834
Brc1ccc(Nc2ccnc3cc(-c4nccs4)ccc23)cc1Oc1ccnc2cc(-c3nccs3)ccc12 | 1060
Cc1cccc(OCCCCON2C(=N)N=C(N)NC2(C)C)c1C | 3.2
CCCCc1ccc2ncc(C(=O)OCC)c(O)c2c1 | 632
Cc1cc(NCCC(=O)Nc2ccccc2)nc(NCCc2cccs2)n1 | 893
N#Cc1ccc(N(CCOc2ccc(Cl)c(Cl)c2)Cc2ccccc2C(F)(F)F)cc1C(F)(F)F | 1110
CCNS(=O)(=O)c1ccc(Oc2ccc([N+](=O)[O-])cc2)cc1 | 169
COc1ccc(NC(=O)Nc2cccc(-c3ccc(-c4nc5cccc(C)c5[nH]4)s3)c2)cc1 | 671
COc1ccc(Cc2cnc3nc(N)nc(N)c3c2C)cc1OC | 9.41
Cc1cc(Nc2ccc(C(C)(C)C)cc2)c2[nH]ncc2n1 | 1160
CC(C)(C)c1ccc(NC(=O)c2ccc(CN3CCCN(Cc4cccc(C#N)c4)CC3)cc2)cc1 | 641
CCOc1ccc2ccccc2c1C(=O)Nc1cc(C)nn1-c1nc(C)cc(=O)[nH]1 | 1010
CC(C)c1ccc(CN2CCCCC(NC(=O)c3cc(-c4ccccc4Cl)cs3)C2)cc1 (stereo not given) | 1120
COc1ccc(-c2csc3ncnc(Cl)c23)cc1OC | 769
CC(C)N1CCN(C(=O)c2ccc(CN(C)CCCN3CCN(c4cccc(Cl)c4Cl)CC3)s2)CC1 | 994
Cc1cc(N)c2cc(NC(=O)c3cccc4ccccc34)ccc2n1 | 844
Nc1c2c(nc3ccc(NC(=O)CCCCCCc4ccccc4)cc13)CCCC2 | 248
CC(C)CCNC(=O)C1Cc2c([nH]c3ccc(Br)cc23)C2(CCN(CCc3ccccc3)CC2)N1 (stereo not given) | 688
Cc1ccc(CC(C)NC[C@H](O)c2cccc(Cl)c2)cc1 (stereo not given in full) | 860

SMILES | XC50 [nM]
OC(CNc1ccnc(Nc2ccccc2)n1)c1ccc(C(F)(F)F)cc1 (stereo not given) | 606
N#Cc1ccc(C(=O)Nc2ccc(Cl)c(N3CCN(CCc4ccccc4)CC3)c2)cc1 | 929
COc1cc(Cc2cnc(N)nc2N)c2c(c1OC)OC(C)(C)C=C2 | 1190
COc1cc(C(=O)N2N=C(c3c(-c4ccccc4)c4cc(Br)ccc4[nH]c3=O)CC2c2cccc([N+](=O)[O-])c2)cc(OC)c1OC (stereo not given) | 943
O=C(Nc1ccc(-c2ccc(-c3nc4ccccc4[nH]3)s2)cc1)Nc1ccc(Cl)c(Cl)c1 | 165
COc1cc(Nc2nc(N)n(C(=O)c3ccc4c(c3)OCO4)n2)cc(OC)c1OC | 1130
CCC(NCc1ccc(-c2cncc(C(=O)NCC(C)C)c2)cc1)c1ccccc1 (stereo not given) | 944
CCCCCCN1CCCN(Cc2cccc(NC(=O)c3cc4ccccc4s3)c2)CC1 | 660
CN1CCN(CC(=O)Nc2ccc(-c3ccc(-c4nc5ccccc5[nH]4)s3)cc2)CC1 | 299
O=C(Nc1cccc(C(F)(F)F)c1)c1cccc(S(=O)(=O)NC2CCCN(CC3CCCCC3)C2)c1 (stereo not given) | 857
COc1ccc(CCn2c(=N)c(C(=O)NCc3cccnc3)cc3c(=O)n4cccc(C)c4nc32)cc1 | 1400
N=C(NCCc1ccc(Cl)cc1)c1ccc(Cl)c(Cl)c1 | 1100
CCCCNCc1ccc(-c2nc(CN(CCCn3ccnc3)C(=O)NC3CC3c3ccccc3)cs2)cc1 (stereo not given) | 744
CCN(CC)CCN1C(=O)c2oc3ccc(F)cc3c(=O)c2C1c1cccc(Cl)c1 (stereo not given) | 531
COc1ccc(NC(=O)[C@H](Cc2ccccc2)Nc2cc(C)nc(NCCc3ccccc3OC)n2)cc1 | 529
CCOC(=O)c1ccc(NC(=O)N[C@@H](Cc2ccccc2)C(=O)NC2CCN(Cc3ccc(OCCCN(C)C)cc3)C2)cc1 (stereo not given in full) | 702
CCNc1cc(C)nc(Nc2ccc(NC(=O)c3ccc(OC)c(OC)c3)cc2)n1 | 1070
CN(CCc1ccccc1)c1ncc(-c2cccc(CNCCC3CCCN3C)c2)cn1 (stereo not given) | 870
Cc1cccc2nc(-c3cccc(-c4cccc(NC(=O)CNC(=O)c5ccc(O)cc5)c4)c3)[nH]c12 | 990
C=CCn1c(=N)c(C(=O)NCc2ccc(F)cc2)cc2c(=O)n3cccc(C)c3nc21 | 1170
CC(=O)Nc1ccc(C(=O)Nc2cccc(-c3cccc(-c4nc5cc(C(F)(F)F)ccc5[nH]4)c3)c2)cn1 | 73.7
Fc1ccc(-c2cc3ncnc(N4CCN(CCN5CCCC5)CC4)c3s2)cc1 | 740
Cc1c(C)c2c(c(C)c1O)CC[C@@](C)(C(=O)N1CCC(CCN3CCC(c4c[nH]c5ccccc45)CC3)CC1)O2 | 666
c1cn(CCCNc2ncc(-c3ccsc3)c(-c3nccs3)n2)cn1 | 646
Cc1ccc2c(NC(=O)Nc3ccc(N(C)C)cc3)cc(C)nc2c1 | 820

SMILES | XC50 [nM]
O=C(Nc1cccc(CN2CCCN(Cc3ccc4c(c3)OCO4)CC2)c1)c1cc2ccccc2s1 | 990
CNC(=O)c1cnc(Nc2ccc(N3CCN(C)CC3)cc2)nc1Nc1cccc([N+](=O)[O-])c1 | 288
O=S(=O)(NCCN1CCCC1)c1ccc(-c2cccc(CNCc3ccsc3)c2)s1 | 896
Cc1ccc(-c2ccc3c(c2)C=C(C(=O)NC2CCN(CCNC(=O)c4cccc(C(F)(F)F)c4)CC2)CCC3)cc1 | 512
O=C(Nc1ccc(-c2oc(C(=O)NCCc3cccc(Cl)c3)cc2-c2ccncc2)cc1)Nc1cccc(Cl)c1 | 722
COc1ccccc1CCNc1nc(C)cc(NCCC(=O)NCCOc2ccccc2)n1 | 1370
Cc1cc(N(C)CCN(C)C)nc(Nc2ccc(Br)cc2)n1 | 801
COCC(C)n1c(C)cc(C(=O)CSc2nnc(Nc3ccccc3)s2)c1C (stereo not given) | 736
O=C(/C=C/c1ccc(Cl)cc1Cl)NCCCCCN1CCC(c2c[nH]c3ccccc23)CC1 | 941
Fc1ccc2[nH]c(-c3cccc(-c4cccc(CNCc5ccccc5)c4)c3)nc2c1 | 283
O=C(C=Cc1ccc(Cl)c(Cl)c1)NCCCCCN1CCC(CCNC(=O)c2ccc3c(c2)OCO3)CC1 | 693
COc1cc2nc(NCCn3nc(C)cc3C)nc(NCCc3ccccc3)c2cc1OC | 436
COc1ccc(Nc2nc(=Nc3ccccc3)nc(NN=Cc3cc(Cl)ccc3O)[nH]2)cc1 | 647
COc1ccccc1CCNc1ncnc2c1[nH]c1ccc(F)cc12 | 837
COCCOC(=O)C(=O)c1c(-c2ccccc2)c(-c2ccc(OC)c(OC)c2)c2c3cc(OC)c(OC)cc3ccn12 | 497
CN1CCc2cc(NC(=O)c3cc4ccccc4s3)cc(-c3ccccc3)c2CC1 | 885
COc1ccc(CCN2CC[C@H](Nc3nc(-c4ccc(F)c(F)c4)nc4ccccc34)C2)cc1S(N)(=O)=O | 789
CCCc1cc(OC)c(CC2c3cc(O)c(C)cc3CCN2C)cc1OC (stereo not given) | 701
NC(=O)c1cccc(C(=O)Nc2cccc(-c3cccc(-c4nc5ccccc5[nH]4)c3)c2)c1 | 548
CN(Cc1cccc(O)c1)C1CCCN(c2cc(NC(=O)c3ccc(F)cc3)ccn2)C1 (stereo not given) | 1070
CCc1ccc(N2C(=O)C3C(Cc4ccc(OC(C)(C)C)cc4)NC4(C(=O)N(Cc5ccccc5)c5ccc(F)cc54)C3C2=O)cc1 (stereo not given) | 800
COc1ccc2nc(-c3ccc(F)cc3)cc([C@@H](O)[C@@H]3C[C@@H]4CCN3CC4C=NO)c2c1 (stereo not given in full) | 248
CCC1N=C(N)N=C(N)N1OCc1ccc(Cl)c(Cl)c1 (stereo not given) | 3.35
Clc1ccc2c(N3CCCNCC3)ccnc2c1 | 482
Fc1ccc(-c2oc(C3CCN(CCc4ccc(-c5noc(=S)[nH]5)cc4)CC3)nc2COCC(F)(F)F)cc1 | 418

— ChEMBL document CHEMBL1157539, “Thousands of chemical starting points for antimalarial lead identification” (Nature, 2010)
